Test system: RbAp48 mRNA expression in hippocampus
Experiment: RbAp48 transcript in situ hybridization in adult hippocampus after injection of kainic acid (synaptic stimulation)
Type: in vivo, mouse
Settings: wild type mice
Description: FIG. 14: RbAp48 transcript distribution in the adult hippocampus of wild type mice in either control conditions (injection of saline) of after injection of kainic acid (synaptic stimulation). Coronal cryosections were hybridized with radio-labelled oligonucleotides specific for RbAp48. […] This upregulation of RbAp48 lasted for four hours (8 hr to 12 hr time points).
RNA In Situ Hybridizations: RNA in situ hybridizations were performed on fresh frozen adult brain slices using 40-45 base anti-sense oligonucleotides^37. The oligonucleotides used for the detection of RbAp48-DN-Flag and RbAp48 transcripts can be found in supplemental table 3.
Treatment with Kainic Acid Kainic acid (Sigma) was injected intraperitoneally as previously described^42
Because RbAp48 regulates histone acetylation, it was explored whether RbAp48-DN affects the steady state levels of histone acetylation in the hippocampal formation using immunohistochemistry and image quantification analysis to measure histone acetylation. The initial focus was on the DG. […] To test for spatial specificity, the CA1 subregion was examined and no significant reduction in histone acetylation (FIGS. 12c & 12d) was found. As with behavior and fMRI, the effect of RbAp48-DN on H2B and H4 acetylation in the adult DG was reversed when its expression was turned off (mice on dox; FIGS. 12c & 12d).

## C=C(C)[C@H]1CN[C@H](C(=O)O)[C@H]1CC(=O)O [kainic acid]
Dentate gyrus, 8 hr to 12 hr time points after kainic acid
  Duration of upregulation of RbAp48: four
Intraperitoneal kainic acid vs saline, eight hours after application, radio-labelled oligonucleotide in situ hybridization
  Expression of RbAp48 (transcript distribution in adult hippocampus): upregulated specifically in the dentate gyrus
